≈ marks a conversion by molar mass, not a printed value. Entries after “also recorded” stand apart in the source; their conditions may differ.
Assays:
MCF-7 cell line = experiment: MTT cytotoxicity assay, MCF-7; type: cell-based, human; settings: for IC50: Homo sapiens, MCF7, 24 h, read-out: IC50 in μg/mL MCF-7, MTT, 24 h treatment
HePG-2 cell line = experiment: MTT cytotoxicity assay, HePG-2; type: cell-based, human; settings: for IC50: Homo sapiens, HepG2, 24 h, read-out: IC50 in μg/mL HePG-2, MTT, 24 h treatment
[1] = tested on: human lung fibroblast cell line WI38; experiment: MTT cell viability, normal lung fibroblast WI38; type: cell-based; settings: WI-38, read-out: IC50 in μg/mL WI38
[2] = biological target: human carbonic anhydrase IX (hCAIX) (Homo sapiens, UniProt Q16790); experiment: biochemical
[3] = biological target: recombinant human carbonic anhydrase XII (hCAXII) (Homo sapiens, UniProt O43570); experiment: hCAXII enzyme inhibition assay; type: biochemical
recombinant human carbonic anhydrase XII (hCAXII), sequence (O43570 25-291): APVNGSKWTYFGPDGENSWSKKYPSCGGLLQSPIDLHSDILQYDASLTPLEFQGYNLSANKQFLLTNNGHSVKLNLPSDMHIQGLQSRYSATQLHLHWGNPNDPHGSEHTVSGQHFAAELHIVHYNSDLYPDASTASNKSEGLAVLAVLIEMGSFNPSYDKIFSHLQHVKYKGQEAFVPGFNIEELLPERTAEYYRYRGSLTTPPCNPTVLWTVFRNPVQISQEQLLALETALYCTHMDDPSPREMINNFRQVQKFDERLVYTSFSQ

IC50 [2] [nM]	IC50 [3] [nM]	SMILES	IC50 (MCF-7 cell line) [µg/mL]	IC50 (HePG-2 cell line) [µg/mL]	IC50 [1] [µg/mL]	anticancer/cytotoxic activity in words, MCF-7 (MCF-7 cell line)	anticancer/cytotoxic activity in words, HePG-2 (HePG-2 cell line)	IC50 in μg/mL HePG-2 (HePG-2 cell line; MTT, 24 h treatment) [µg/mL]	IC50 in μg/mL MCF-7 (MCF-7 cell line; MTT, 24 h treatment) [µg/mL]
		COc1ccc(-c2nn(-c3ccccc3)cc2C2c3sc(=O)[nH]c3SCC2C#N)cc1 (centres unmarked) [7c, 7-(3-(4-Methoxyphenyl)-1-phenyl-1H-pyrazol-4-yl)-2-oxo-3,5,6,7-tetra-hydro-2H-thiopyrano[2,3-d]thiazole-6-carbonitrile]	29.4 ± 1.1 (≈ 65.9 µM)	24.1 ± 2.9 (≈ 54 µM)	51.9 ± 3.4 (≈ 116 µM)				
		O=C1NC(=S)C(=Cc2cn(-c3ccccc3)nc2-c2ccccc2)S1 [compound 3a, 5-[(1,3-Diphenyl-1H-pyrazol-4-yl)methylene]-4-thioxo-2-thiazolidinone]	52.1 ± 3.1 (≈ 143 µM)	65.8 ± 3.3 (≈ 181 µM)	28.2 ± 2.3 (≈ 77.6 µM)	weak activity	weak activity		
		Cc1ccc(-c2nn(-c3ccccc3)cc2C=C2SC(=O)NC2=S)cc1 [compound 3b, 5-[(3-(4-Methylphenyl)-1-phenyl-1H-pyrazol-4-yl)methylene]-4-thioxo-2-thiazolidinone]	56.3 ± 3.4 (≈ 149 µM)	62.2 ± 3.2 (≈ 165 µM)	25.3 ± 2.1 (≈ 66.9 µM)	weak activity	weak activity		
		COc1ccc(-c2nn(-c3ccccc3)cc2C=C2SC(=O)NC2=S)cc1 [compound 3c, 5-[(3-(4-Methoxyphenyl)-1-phenyl-1H-pyrazol-4-yl)methylene]-4-thioxo-2-thiazolidinone]	37.6 ± 3.4 (≈ 95.5 µM)	31.2 ± 2.6 (≈ 79.3 µM)	64.5 ± 3.8 (≈ 164 µM)	moderate activity	moderate activity		
		O=C1NC(=S)C(=Cc2cn(-c3ccccc3)nc2-c2ccc(Cl)cc2)S1 [compound 3d, 5-[(3-(4-Chlorophenyl)-1-phenyl-1H-pyrazol-4-yl)methylene]-4-thioxo-2-thiazolidinone]	30.8 ± 2.2 (≈ 77.5 µM)	38.2 ± 2.7 (≈ 96 µM)	71.2 ± 4.2 (≈ 179 µM)	moderate activity	moderate activity		
349 ± 11	556 ± 16	O=C1NC(=S)C(=Cc2cn(-c3ccccc3)nc2-c2ccc(Br)cc2)S1 [compound 3e, 5-[(3-(4-Bromophenyl)-1-phenyl-1H-pyrazol-4-yl)methylene]-4-thioxo-2-thiazolidinone]	11.2 ± 1.5 (≈ 25.2 µM)	7.83 ± 1.5 (≈ 17.7 µM)	41.5 ± 2.9 (≈ 93.8 µM)	most potent cytotoxic agent in this series; also recorded: strong anticancer activity	most potent cytotoxic agent in this series; also recorded: strong cytotoxic activity	10.66 ± 1.0 (≈ 24.1 µM)	
		O=C1C2Sc3[nH]c(=O)sc3C(c3cn(-c4ccccc4)nc3-c3ccccc3)C2C(=O)N1c1ccccc1 (centres unmarked) [compound 5a, 8-(1,3-Diphenyl-1H-pyrazol-4-yl)-6-phenyl-7a,8-dihydropyrrolo[3′,4′:5,6]-thiopyrano[2,3-d]thiazole-2,5,7(3H,4aH,6H)-trione]	30.3 ± 0.4 (≈ 56.5 µM)	38.4 ± 2.1 (≈ 71.6 µM)	65.7 ± 1.1 (≈ 122 µM)				
336 ± 16	604 ± 33	Cc1ccc(-c2nn(-c3ccccc3)cc2C2c3sc(=O)[nH]c3SC3C(=O)N(c4ccccc4)C(=O)C32)cc1 (centres unmarked) [compound 5d, 8-(3-(4-Methylphenyl)-1-phenyl-1H-pyrazol-4-yl)-6-phenyl-7a,8-dihydro-pyrrolo[3′,4′:5,6]-thiopyrano[2,3-d]thiazole-2,5,7(3H,4aH,6H)-trione]	25.4 ± 2.1 (≈ 46.1 µM)	21.3 ± 1.8 (≈ 38.7 µM)	49.9 ± 3.4 (≈ 90.5 µM)	good cytotoxic effect	good cytotoxic effect		25.95 ± 2.8 (≈ 47.1 µM)
		COc1ccc(-c2nn(-c3ccccc3)cc2C2c3sc(=O)[nH]c3SC3C(=O)N(c4ccccc4)C(=O)C32)cc1 (centres unmarked) [compound 5e, 8-(3-(4-Methoxyphenyl)-1-phenyl-1H-pyrazol-4-yl)-6-phenyl-7a,8-dihydro-pyrrolo-[3′,4′:5,6]thiopyrano[2,3-d]thiazole-2,5,7(3H,4aH,6H)-trione]	35.7 ± 72 (≈ 63 µM)	30.7 ± 0.3 (≈ 54.2 µM)	51.7 ± 3.7 (≈ 91.2 µM)				
		O=C1C2Sc3[nH]c(=O)sc3C(c3cn(-c4ccccc4)nc3-c3ccc(Cl)cc3)C2C(=O)N1c1ccccc1 (centres unmarked) [compound 5f, 8-(3-(4-Chlorophenyl)-1-phenyl-1H-pyrazol-4-yl)-6-phenyl-7a,8-dihydro-pyrrolo[3′,4′:5,6]-thiopyrano[2,3-d]thiazole-2,5,7(3H,4aH,6H)-trione]	25.4 ± 2.1 (≈ 44.5 µM)	29 ± 2.1 (≈ 50.8 µM)	43 ± 3.1 (≈ 75.3 µM)	almost moderate activity	almost moderate activity		
		O=C1C2Sc3[nH]c(=O)sc3C(c3cn(-c4ccccc4)nc3-c3ccc(Br)cc3)C2C(=O)N1c1ccccc1 (centres unmarked) [compound 5g, 8-(3-(4-Bromophenyl)-1-phenyl-1H-pyrazol-4-yl)-6-phenyl-7a,8-dihydro-pyrrolo[3′,4′:5,6]-thiopyrano[2,3-d]thiazole-2,5,7(3H,4aH,6H)-trione]	42.9 ± 2.7 (≈ 69.7 µM)	45 ± 3 (≈ 73 µM)	24.9 ± 2 (≈ 40.4 µM)	weakly active	weakly active		
		N#CC1CSc2[nH]c(=O)sc2C1c1cn(-c2ccccc2)nc1-c1ccccc1 (centres unmarked) [compound 7a, 7-(1,3-Diphenyl-1H-pyrazol-4-yl)-2-oxo-3,5,6,7-tetrahydro-2H-thiopyrano-[2,3-d]thiazole-6-carbonitrile]	23.8 ± 1.9 (≈ 57 µM)	26.8 ± 3.3 (≈ 64.4 µM)	54.6 ± 3.5 (≈ 131 µM)				
		Cc1ccc(-c2nn(-c3ccccc3)cc2C2c3sc(=O)[nH]c3SCC2C#N)cc1 (centres unmarked) [compound 7b, 7-(3-(4-Methylphenyl)-1-phenyl-1H-pyrazol-4-yl)-2-oxo-3,5,6,7-tetra-hydro-2H-thiopyrano-[2,3-d]thiazole-6-carbonitrile]	35 ± 2.3 (≈ 81.4 µM)	30.4 ± 1.1 (≈ 70.7 µM)	41.4 ± 1.7 (≈ 96 µM)				
		N#CC1CSc2[nH]c(=O)sc2C1c1cn(-c2ccccc2)nc1-c1ccc(Cl)cc1 (centres unmarked) [compound 7d, 7-(3-(4-Chlorophenyl)-1-phenyl-1H-pyrazol-4-yl)-2-oxo-3,5,6,7-tetra-hydro-2H-thiopyrano[2,3-d]thiazole-6-carbonitrile]	67.3 ± 3.7 (≈ 149 µM)	73 ± 4.3 (≈ 162 µM)	39.5 ± 1.7 (≈ 87.6 µM)	weak activity	weak activity		
928 ± 45	1050 ± 57	CCOC(=O)C1CSc2[nH]c(=O)sc2C1c1cn(-c2ccccc2)nc1-c1ccccc1 (centres unmarked) [compound 7f, Ethyl 7-(1,3-Diphenyl-1H-pyrazol-4-yl)-2-oxo-3,5,6,7-tetrahydro-2H-thiopyrano[2,3-d]thiazole-6-carboxylate]	15.9 ± 2.3 (≈ 34.3 µM)	13.4 ± 1.2 (≈ 28.8 µM)	44.5 ± 4.5 (≈ 96 µM)	moderate anticancer activity	moderate anticancer activity		
		COc1cccc2c1C(=O)c1c(O)c3c(c(O)c1C2=O)C[C@@](O)(C(=O)CO)C[C@@H]3O[C@H]1C[C@H](N)[C@H](O)[C@H](C)O1 [doxorubicin, reference compound]			8.87 ± 0.6 (≈ 16.3 µM)				
